Consider 31 compounds from patent US10457687B2, “Aminoacid derivatives, a process for their preparation and pharmaceutical compositions containing them” (LES LABORATOIRES SERVIER, priority 2015, dated 2019).

The structures appear in SMILES notation.

Chain of Mcl-1 protein (Q07820 whole entry): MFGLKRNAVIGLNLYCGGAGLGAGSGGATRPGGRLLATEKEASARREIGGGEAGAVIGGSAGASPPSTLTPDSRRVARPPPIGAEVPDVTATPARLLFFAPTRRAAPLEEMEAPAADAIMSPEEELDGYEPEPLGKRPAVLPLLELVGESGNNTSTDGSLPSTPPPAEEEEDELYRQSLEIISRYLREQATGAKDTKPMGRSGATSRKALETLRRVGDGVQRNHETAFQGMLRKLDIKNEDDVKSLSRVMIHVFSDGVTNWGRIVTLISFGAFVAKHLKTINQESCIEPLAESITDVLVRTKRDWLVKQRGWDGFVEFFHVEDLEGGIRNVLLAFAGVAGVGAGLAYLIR

One assay concerns the target Mcl-1 protein (Homo sapiens, UniProt Q07820). Nature of the assay: Inhibition of Mcl-1 by the fluorescence polarisation technique (Method 1 or Method 2). The format is binding. Particulars: fluorescence polarisation, Fluorescein labelled ligand; Method 1 (not underlined) or Method 2 (underlined); read-out: IC50 (μM) Mcl-1 FP. The gist of the method:
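Fluorescence polarisation competition of 11-point compound dilutions (5% DMSO final) against fluorescein-labelled ligand for Mcl-1. Method 1: 1 nM ligand, 5 nM protein in 10 mM HEPES, 150 mM NaCl, 0.05% Tween 20, pH 7.4; Method 2: 10 nM ligand, 10 nM protein in 20 mM Na2HPO4, 1 mM EDTA, 50 mM NaCl, pH 7.4.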
With `CC(C)(O)c1sc2ncnc(NC(Cc3ccccc3)C(=O)O)c2c1-c1cccc2ccccc12` [Example 210, N-[6-(2-hydroxypropan-2-yl)-(5Sa)-5-(naphthalen-1-yl)thieno[2,3-d]pyrimidin-4-yl]-D-phenylalanine], the IC50 (commonly the concentration needed to halve the response being measured) amounted to 8.36 µM.
On the same count and under the same terms, the result for `CCc1sc2ncnc(NC(Cc3ccccc3)C(=O)O)c2c1-c1cccc2ccccc12` [Example 101, N-[6-ethyl-(5Sa)-5-(naphthalen-1-yl)thieno[2,3-d]pyrimidin-4-yl]-D-phenylalanine] reads 0.462 µM; that for `CCc1sc2ncnc(NC(Cc3cccc(F)c3)C(=O)O)c2c1-c1cccc2ccccc12` [Example 178, N-[6-ethyl-(5Ra)-5-(naphthalen-1-yl)thieno[2,3-d]pyrimidin-4-yl]-3-fluoro-D-phenylalanine], 3.23 µM; that for `CCc1sc2ncnc(N[C@H](Cc3ccccc3)C(=O)O)c2c1-c1cccc(F)c1C` [Example 68, N-[6-ethyl-5-(3-fluoro-2-methylphenyl)thieno[2,3-d]pyrimidin-4-yl]-D-phenylalanine], 0.142 µM.
On the same count and under the same terms, the result for `O=C(O)C(Cc1ccccn1)Nc1ncnc2sc(C(F)F)c(-c3cccc4ccccc34)c12` [Example 251, N-[6-(difluoromethyl)-(5Ra)-5-(naphthalen-1-yl)thieno[2,3-d]pyrimidin-4-yl]-3-pyridin-2-yl-D-alanine] reads 12.1 µM; that for `CCc1sc2ncnc(NC(CC3CCCCC3)C(=O)O)c2c1-c1cccc2ccccc12` [Example 165, 3-cyclohexyl-N-[6-ethyl-(5Ra)-5-(naphthalen-1-yl)thieno[2,3-d]pyrimidin-4-yl]-D-alanine], 0.315 µM.
On the same count and under the same terms, the result for `CCc1sc2ncnc(NC(Cc3ccccc3)C(=O)O)c2c1-c1cccc2[nH]ccc12` [Example 74, N-[6-ethyl-(5Ra)-5-(1H-indol-4-yl)thieno[2,3-d]pyrimidin-4-yl]-D-phenylalanine] reads 0.621 µM; that for `CCc1sc2ncnc(NC(Cc3ccccc3C(F)(F)F)C(=O)O)c2c1-c1cccc(Cl)c1C` [Example 138, N-[(5Sa)-5-(3-chloro-2-methylphenyl)-6-ethylthieno[2,3-d]pyrimidin-4-yl]-2-(trifluoromethyl)-D-phenylalanine], 0.664 µM.
For the compound `CCc1sc2ncnc(NC(Cc3ccccc3OCCC3CCCC3)C(=O)O)c2c1-c1cccc(Cl)c1C` [Example 144, N-[(5Sa)-5-(3-chloro-2-methylphenyl)-6-ethylthieno[2,3-d]pyrimidin-4-yl]-2-(2-cyclopentylethoxy)-D-phenylalanine], the IC50 was 0.154 µM.
Regarding `COc1ccccc1-c1nccc(COc2ccccc2CC(Nc2ncnc3sc(-c4ccc(F)cc4)c(-c4ccc(OCCN5CCN(C)CC5)c(Cl)c4C)c23)C(=O)O)n1` [Example 7, N-[(5Sa)-5-{3-chloro-2-methyl-4-[2-(4-methylpiperazin-1-yl)ethoxy]phenyl}-6-(4-fluorophenyl)thieno[2,3-d]pyrimidin-4-yl]-2-{[2-(2-methoxyphenyl)pyrimidin-4-yl]methoxy}-D-phenylalanine], the IC50 amounted to 0.008 µM.
Still for that read-out and setting: the result for `CCc1sc2ncnc(NC(Cc3ccccc3)C(=O)O)c2c1-c1cccc2c1c(Cl)cn2CCN1CCOCC1` [Example 237, N-((5Sa)-5-{3-chloro-1-[2-(morpholin-4-yl)ethyl]-1H-indol-4-yl}-6-ethyl-thieno[2,3-d]pyrimidin-4-yl)-D-phenylalanine] reads 0.569 µM; that for `CCc1sc2ncnc(NC(Cc3ccccc3O)C(=O)O)c2c1-c1cccc2ccccc12` [Example 174, N-[6-ethyl-(5Sa)-5-(naphthalen-1-yl)thieno[2,3-d]pyrimidin-4-yl]-2-hydroxy-D-phenylalanine], 0.466 µM.
Same read-out and setting: the result for `C=C(C)c1sc2ncnc(NC(Cc3ccccc3)C(=O)O)c2c1-c1cccc2ccccc12` [Example 107, N-[(5Ra)-5-(naphthalen-1-yl)-6-(prop-1-en-2-yl)thieno[2,3-d]pyrimidin-4-yl]-D-phenylalanine] reads 0.544 µM.
The same measure, in the same setting: the result for `C/C=C\c1sc2ncnc(N[C@H](Cc3ccccc3)C(=O)O)c2c1-c1cccc2ccccc12` [Example 104, N-[(5Sa)-5-(naphthalen-1-yl)-6-((1Z)-prop-1-en-1-yl)thieno[2,3-d]pyrimidin-4-yl]-D-phenylalanine] reads 0.046 µM; that for `CCCCn1nccc1COc1ccccc1CC(Nc1ncnc2sc(-c3ccc(F)o3)c(-c3ccc(OCCN4CCN(C)CC4)c(Cl)c3C)c12)C(=O)O` [Example 24, 2-[(1-butyl-1H-pyrazol-5-yl)methoxy]-N-[(5Sa)-5-{3-chloro-2-methyl-4-[2-(4-methylpiperazin-1-yl)ethoxy]phenyl}-6-(5-fluorofuran-2-yl)thieno[2,3-d]pyrimidin-4-yl]-D-phenylalanine], 0.008 µM.
On to `CCc1sc2ncnc(N[C@H](Cc3c[nH]cn3)C(=O)O)c2c1-c1cccc2ccccc12` [Example 190, N-[6-ethyl-5-(naphthalen-1-yl)thieno[2,3-d]pyrimidin-4-yl]-D-histidine], for which the IC50 came out at 34.6 µM.
Still for that read-out and setting: the result for `CCc1sc2ncnc(NC(Cc3ccccc3)C(=O)O)c2c1-c1cccc2cnn(C)c12` [Example 88, N-[6-ethyl-(5Sa)-5-(1-methyl-1H-indazol-7-yl)thieno[2,3-d]pyrimidin-4-yl]-D-phenylalanine] reads 1.23 µM.
Still for that read-out and setting: the result for `CCc1sc2ncnc(NC(Cc3ccc(F)cc3)C(=O)O)c2c1-c1cccc2ccccc12` [Example 176, N-[6-ethyl-(5Ra)-5-(naphthalen-1-yl)thieno[2,3-d]pyrimidin-4-yl]-4-fluoro-D-phenylalanine] reads 8.41 µM; that for `CCc1sc2ncnc(N[C@](C)(Cc3ccccc3)C(=O)O)c2c1-c1cccc(Cl)c1C` [Example 119, N-[5-(3-chloro-2-methylphenyl)-6-ethylthieno[2,3-d]pyrimidin-4-yl]-alpha-methyl-D-phenylalanine], 1.46 µM; that for `C=Cc1sc2ncnc(NC(Cc3ccccc3)C(=O)O)c2c1-c1cccc2ccccc12` [Example 102, N-[6-ethenyl-(5Sa)-5-(naphthalen-1-yl)thieno[2,3-d]pyrimidin-4-yl]-D-phenylalanine], 0.073 µM.
Same read-out and setting: the result for `CCc1sc2ncnc(NC(Cc3ccccc3OCCN3CCN(C)CC3)C(=O)O)c2c1-c1cccc(Cl)c1C` [Example 154, N-[(5Sa)-5-(3-chloro-2-methylphenyl)-6-ethylthieno[2,3-d]pyrimidin-4-yl]-2-[2-(4-methylpiperazin-1-yl)ethoxy]-D-phenylalanine] reads 2.32 µM.
On to `CCc1sc2ncnc(NC(Cc3ccccc3)C(=O)O)c2c1-c1cc(Cl)c(OCCN2CCN(C)CC2)c(Cl)c1C` [Example 54, N-((5Sa)-5-{3,5-dichloro-2-methyl-4-[2-(4-methylpiperazin-1-yl)ethoxy]phenyl}-6-ethylthieno[2,3-d]pyrimidin-4-yl)-D-phenylalanine], for which the IC50 came to 0.541 µM.
Still for that read-out and setting: the result for `CCc1sc2ncnc(NC(Cc3ccccc3)C(=O)O)c2c1-c1ccc(OCCCN2CCN(C)CC2)c(Cl)c1C` [Example 64, N-((5Sa)-5-{3-chloro-2-methyl-4-[3-(4-methylpiperazin-1-yl)propoxy]phenyl}-6-ethylthieno[2,3-d]pyrimidin-4-yl)-D-phenylalanine] reads 0.025 µM; that for `CCc1sc2ncnc(NC(Cc3ccc(F)cc3)C(=O)O)c2c1-c1cccc2ccccc12` [Example 177, N-[6-ethyl-(5Sa)-5-(naphthalen-1-yl)thieno[2,3-d]pyrimidin-4-yl]-4-fluoro-D-phenylalanine], 0.957 µM.
On the same count and under the same terms, the result for `CCc1sc2ncnc(NC(Cc3ccccc3O)C(=O)O)c2c1-c1cccc2ccccc12` [Example 175, N-[6-ethyl-(5Ra)-5-(naphthalen-1-yl)thieno[2,3-d]pyrimidin-4-yl]-2-hydroxy-D-phenylalanine] reads 3.86 µM.

Staying with this assay, now noted: partial inhibitors; @ 10 μM test compound.
`CCc1sc2ncnc(NC(Cc3ccccc3OCC(=O)N(C)C)C(=O)O)c2c1-c1cccc(Cl)c1C` [Example 141, N-[(5Ra)-5-(3-chloro-2-methylphenyl)-6-ethylthieno[2,3-d]pyrimidin-4-yl]-2-[2-(dimethylamino)-2-oxoethoxy]-D-phenylalanine]: the “percentage fluorescence polarisation inhibition, Mcl-1 FP” value turned out to be 26.78% @ 10 μM.
On the same count and under the same terms, the result for `Cc1c(Cl)cccc1-c1c(C(C)C)sc2ncnc(N[C@H](Cc3ccccc3)C(=O)O)c12` [Example 220, N-[(5Ra)-5-(3-chloro-2-methylphenyl)-6-(propan-2-yl)thieno[2,3-d]pyrimidin-4-yl]-D-phenylalanine] reads 31.7% @ 10 μM.

The same assay, now with this note: partial inhibitors; @ 50 μM test compound.
Consider `CCc1sc2ncnc(N[C@H](Cc3ccccc3)C(=O)O)c2c1-c1cccc2c1c(Cl)cn2CCN(C)C` [Example 231, N-((5Ra)-5-{3-chloro-1-[2-(dimethylamino)ethyl]-1H-indol-4-yl}-6-ethyl-thieno[2,3-d]pyrimidin-4-yl)-D-phenylalanine], for which the “percentage fluorescence polarisation inhibition, Mcl-1 FP” value came to 56.75% @ 50 μM.
Regarding `CCc1sc2ncnc(N[C@H](Cc3c(F)cccc3F)C(=O)O)c2c1-c1cccc(Cl)c1C` [Example 130, N-[(5Ra)-5-(3-chloro-2-methylphenyl)-6-ethylthieno[2,3-d]pyrimidin-4-yl]-2,6-difluoro-D-phenylalanine], the “percentage fluorescence polarisation inhibition, Mcl-1 FP” value was 67.4% @ 50 μM.

Staying with this assay, now noted: partial inhibitors; @ 100 μM test compound; 100 µM.
As for `CC(O)c1sc2ncnc(N[C@H](Cc3ccccc3)C(=O)O)c2c1-c1cccc2ccccc12` (single isomer, unassigned) [Example 205, N-[6-(1-hydroxyethyl)-5-(naphthalen-1-yl)thieno[2,3-d]pyrimidin-4-yl]-D-phenylalanine], the “percentage fluorescence polarisation inhibition, Mcl-1 FP” value amounted to 26.2% @ 100 μM.

Still in this assay, the particulars now being: partial inhibitors; @ 200 μM test compound.
For `O=C(O)[C@@H](Cc1ccccc1)Nc1ncnc2sc(CO)c(-c3cccc4ccccc34)c12` [Example 197, N-[6-(hydroxymethyl)-(5Ra)-5-(naphthalen-1-yl)thieno[2,3-d]pyrimidin-4-yl]-D-phenylalanine], the “percentage fluorescence polarisation inhibition, Mcl-1 FP” value is listed as 54.1% @ 200 μM.
